Series [1] has as its system Leishmania infantum. Description: Antileishmanial activity against stationary phase of Leishmania infantum MHOM/MA/67/ITMAP263 infected in BALB/c mouse assessed as decrease in parasitic load in liver at 12.5 mg/kg/day administered orally via gavage as bid for 5 days on 7th day post infection and measured on day 30 by limiting dilution assay relative to control. The series is classed as functional. As to conditions: MHOM/MA/67/ITMAP263, po.

In series [2] the test system is Leishmania infantum. Description: Antileishmanial activity against Leishmania infantum MHOM/MA/67/ITMAP263 promastigotes infected in BALB/c mouse peritoneal macrophages assessed as decrease in parasitic infection index at 48 uM incubated for 72 hrs by light microscopy relative to control. The series is classed as functional. The conditions noted are these: MHOM/MA/67/ITMAP263, 72 h.

In series [3] the test system is Leishmania infantum. Briefly: Antileishmanial activity against stationary phase of Leishmania infantum MHOM/MA/67/ITMAP263 promastigotes infected in BALB/c mouse assessed as decrease in parasitic load in liver at 50 mg/kg/day administered orally via gavage as bid for 5 days on 7th day post infection and measured on day 30 by limiting dilution assay relative to control. The series is classed as functional. The conditions noted are these: MHOM/MA/67/ITMAP263, po.

Series [4] concerns Leishmania infantum. Briefly: Antileishmanial activity against stationary phase of Leishmania infantum MHOM/MA/67/ITMAP263 promastigotes infected in orally dosed BALB/c mouse assessed as decrease in parasitic load in liver administered via gavage bid for 5 days on 7th day post infection and measured on day 30 by limiting dilution assay. The series is classed as functional.
A short description of series [5]: Selectivity index, ratio of CC50 for mouse peritoneal macrophages to EC50 for Leishmania infantum MHOM/MA/67/ITMAP263 promastigotes infected in BALB/c mouse peritoneal macrophages. The conditions noted are these: read-out: Ratio CC50/EC50. The series is classed as toxicity.
Series [6] relates to Leishmania infantum. Description: Antileishmanial activity against Leishmania infantum MHOM/MA/67/ITMAP263 promastigotes infected in BALB/c mouse peritoneal macrophages assessed as decrease in parasitic infection index incubated for 72 hrs by light microscopy. The series is classed as functional, organism-based.
For series [7], the system named is Leishmania infantum. Briefly: Antileishmanial activity against stationary phase of Leishmania infantum MHOM/MA/67/ITMAP263 infected in BALB/c mouse assessed as decrease in parasitic load in liver at 25 mg/kg/day administered orally via gavage as bid for 5 days on 7th day post infection and measured on day 30 by limiting dilution assay relative to control. The class given is functional. As to conditions: MHOM/MA/67/ITMAP263, po.

Series [8] concerns Leishmania infantum. Briefly: Antileishmanial activity against stationary phase of Leishmania infantum MHOM/MA/67/ITMAP263 promastigotes infected in BALB/c mouse assessed as decrease in parasitic load in liver at 50 mg Sb5+/kg/day, im once daily for 5 days on 7th day post infection and measured on day 30 by limiting dilution assay. The series is classed as functional, organism-based.

Active and inactive are the calls of the source. No cut-off for these calls is given here.

What is called inhibition in vivo is the percentage by which the read-out fell short of the control. What is called inhibition is the share of the control response that was lost under treatment. What is called ED50 is the dose that gives a 50% effect, or the effect in half of the subjects. As usually defined, the EC50 is the concentration at which the effect is half-maximal.

With `O=C(O[C@@H]1Cc2c(O)cc(O)cc2O[C@@H]1c1cc(O)c(O)c(O)c1)c1cc(O)c(O)c(O)c1` [EPIGALOCATECHIN GALLATE], the inhibition in vivo at 12.5 mg/kg/day in the series with Leishmania infantum [1] was determined as 47.5%. Further, in the series with Leishmania infantum [2], the inhibition at 48 µM turned out to be 97.7%. In addition, the inhibition in vivo at 50 mg/kg/day in the series with Leishmania infantum [3] is 98.7%. The inhibition entry in the series on Leishmania infantum [4] is “Dose-dependent effect”. For the same compound, in the series on Leishmania infantum [4] (MHOM/MA/67/ITMAP263, po), the ED50 turned out to be 12.4 mg/kg/day and the ED90 worked out at 21.5 mg/kg/day. In addition, the selectivity ratio in series [5] stood at 168. The inhibition result in the series on Leishmania infantum [6] is “Dose-dependent effect”. The EC50 with Leishmania infantum [6] (MHOM/MA/67/ITMAP263, 72 h) came to 2600 nM. The inhibition in vivo at 25 mg/kg/day with Leishmania infantum [7] came out at 93.6%.

With Meglumine antimoniate, the inhibition entry in the series with Leishmania infantum [8] is “Active”.

(Values after ChEMBL document CHEMBL4414580, “(-)-Epigallocatechin 3-O-Gallate as a New Approach for the Treatment of Visceral Leishmaniasis” (J Nat Prod, 2019).)
